Measured values from US20240197588A1, “ANTIMICROBIAL COMPOSITION” (Conopco, Inc., d/b/a UNILEVER, priority 2021, published 2024).

How the values were obtained:
[1] = Physical state of detackifying agent at room temperature; type: physicochemical
Text: RT in Table 4 refers to room temperature.

[2] = Solubility of oil (detackifying agent) in 75/25 EtOH/Water; conditions: neat detackifying agent
Text: (§1) Detackifying agents desirable for use in the antimicrobial composition disclosed herein must meet the following criteria: the detackifying agent must be liquid, the detackifying agent must be soluble in at least a 75/25 or higher ratio of ethanol to water (EtOH/Water), which is to be reflective of solubility in the final composition resulting in a clear (i.e., transparent) final antimicrobial composition, and the detackifying agent must have no solvency for water.

[3] = Water solubility in oil (solvency of detackifying agent for water); conditions: neat detackifying agent
Text: as §1
Finally, the preferred detackifying agent must itself not have solvency for water such that during application and on drying as the ethanol and water evaporate, the water is also allowed to quickly evaporate leaving behind only the oil and any skin benefit actives/moisturizers if present.

Molecule | Oil (liquid or solid at RT) [1] | Solubility in 75/25 EtOH/Water [2] | Water solubility in detackifying agent [3]
CCCCC(CC)COC(=O)CCCCC(=O)OCC(CC)CCCC (stereo not shown) [Diethylhexyl adipate] | Liquid | <10% | No
Dicapryl maleate | Liquid | <10% | No
CC(C)OC(=O)CCCCC(=O)OC(C)C [Disopropyl adipate] | Liquid | >30% | No
CCCCC(CC)COC(=O)CCCCCCCCC(=O)OCC(CC)CCCC (stereo not shown) [Diethyl hexyl sebacate] | Liquid | – | –
CC(C)OC(=O)CCCCCCCCC(=O)OC(C)C [Diisopropyl sebacate] | Liquid | – | –

The remaining lines, values ahead:

Oil (liquid or solid at RT) [1] | Solubility in 75/25 EtOH/Water [2] | Water solubility in detackifying agent [3] | Molecule
Liquid | – | – | CCCCC(CC)COC(=O)CC(O)C(=O)OCC(CC)CCCC (stereo not shown) [Diethyl hexyl malate]
Liquid | >30% | No | CCCCCCCCCCCCOC(=O)C(C)O (stereo not shown) [Lauryl lactate]
Liquid | >30% | No | PPG15 Stearyl ether
Liquid | – | – | CC(C)CCCCCCCCCCCCCCCO [Isostearyl alcohol]
